Laboratory results published in US6402037B1, “Two-photon upconverting dyes and applications” (The Research Foundation of State University of New York, priority 1995, dated 2002).
Marks after values point to notes of the source that are not given here. Each block holds one compound with its values, some of them ahead of it.

Experiments:
[1] = Solubility
[2] = Decomposition temperature (Td) by DSC thermogram; assay type: physicochemical; details: DSC under nitrogen
Protocol: Decomposition temperature (“Td”) of each dye was measured by differential scanning calorimetry (“DSC”) thermogram using a Shimadzu DSC-50GPC under nitrogen. Elemental: analysis were performed by Atlantic Microlab, Inc., P.O. Box 2288, Norcross, Ga. 30019. Proton NMR spectra, TV/visible absorption spectra, and UV/visible emission spectra were recorded using a Varian Gemini-300 300 MHz spectrometer, a Shimazdu UV-3101 PC spectrophotometer, and a Shimazdu RF5000U spectrofluorophotometer, respectively: TV/visible absorption spectra of dyes prepared in these Examples in DMF, are provided in FIG. 3.

[3] = Optical characterization of the solution state (ethanol); details: for fluorescence quantum yield: vs Rhodamine-6G
Protocol: Absorption spectra were obtained using a Shimadzu UV-Vis 260 spectrophotometer with a resolution of ±1 nm. The spectra of solution state were obtained using quartz cuvettes (1 cm path length) throughout.
In addition, the quantum yield was measured from the fluorescence data.

[4] = Optical characterization of the dye-doped composite glasses; assay type: physicochemical
Protocol: Emission spectra were collected on a Shimadzu RF-5000U Spectrofluorophotometer (90° geometry) having a resolution of ±2 nm. For solution state measurements, a fluorometric quartz cuvette was used. For the composite glass, the emission was obtained from the surface of the glass (90° geometry) due to significant primary absorption. […]

[5] = Two-photon pumped cavity lasing of dye-doped matrices (1.06 μm pump)
[6] = as above; remark: listed apart in the source
Protocol: Two-photon pumped cavity lasing experiments were conducted using a Q-switched Nd-YAG pulsed laser source having a wavelength of 1.06 μm, a pulsewidth of about 10 ns, a spectral width of about 1 cm^−1, an angular divergence of about 1.3 mrad, and a variable repetition rate of 1-10 Hz. A 1 cm-long quartz cuvette filled with dye1 solution in cyclopentanone (do≈8×10^−2 to 4×10^−2M) and a 7 mm-long, dye1 -doped poly(HEMA) rod (do,≈8×10^−3 M), prepared in accordance with Example 12, were used separately for two-photon pumped (“TPP”) lasing observation. The 1.06 μm-pump laser beam was focused on the center of the cuvette or sample rod, and a strong orange-red fluorescence emission was observed when the infrared pump intensity reached several MW/cm^2. Once the pump intensity further increased to a certain threshold level, simultaneous forward and backward highly directional superradiation could be observed from the solution or rod samples. To achieve cavity lasing, two parallel plane dielectrc-coating mirrors were employed to form a cavity. The pump beam, focused through a f-10 cm lens, was coupled into the cavity by normal incidence. The reflectivity was r=10% at 1.06 μm and r=99% at 600 nm for the front mirror (input coupler) and r=10% at 1.06 μm and r=50% at 600 nm for the rear mirror (output coupler). The total cavity length was 7˜8 cm, and the cuvette or sample rod was located at the center of the cavity. […] FIGS. 11A-11C show the emission spectra of the same 7 mm-long, dye1 -doped rod sample under the following different excitation conditions: 532 nm one-photon excited fluorescence emission (FIG. 11A), 1.06 μm two-photon excited fluorescence emission (FIG. 11B), and 1.06 μm pumped cavity lasing (FIG. 11C). Each spectrum was obtained using a grating -spectrograph in conjunction with an optical multi-channel analyzer (OMA-III) system. The difference between FIGS. 11A and 11B can be explained by a volume reabsorption effect of the emission. To obtain these two spectra, the excitation beam was incident on the rod end at a +45° angle, and the fluorescence was measured at a −45° angle. In the case of FIG. 11A, the emission was mainly from a shallow surface layer of the sample because of the very short penetration depth of the 532 nm pump radiation, and therefore, the reabsorption effect within the sample can be neglected. However, for the case of FIG. 11B, the incident infrared beam could pass through the whole rod length without obvious depletion, and, consequently, collected fluorescence signals of different spectral components were propagated within the sample for a considerable distance. […] Cavity lasing occurred at the central region of the two-photon absorption (“TPA”) induced fluorescence band, but the lasing bandwidth (˜8 nm) was much narrower than the ordinary one-photon excited fluorescence band width (˜60 nm) due to the lasing threshold requirement. In addition, a red-shift of the central lasing wavelength was observed as the pump energy increased. This shift may be caused by the local temperature change of the sample rod.
Compared to the smooth temporal profile of the 10 ns pump pulse, the lasing pulses manifested much shorter rise- and fall-times, i.e. ≦1.5 ns limited by the resolution of the detecting system. […]
The lasing output/pump input characteristic curve is given in FIG. 13 for the rod cavity lasing. […] However, at this pump level the measured one-pass two-photon absorption in the 7 mm-long rod was only about 23%. […]

[7] = TPA induced fluorescence and optical limiting in dye1-doped epoxy; assay type: physicochemical
Source text: Dye1, prepared in accordance with Example 6, was dispersed in an optical quality epoxy compound, EPO-TEX301 (Epoxy Technology, Inc., Billerica, Mass.) by dissolving the dye powder in the liquid Part A and Part B of the epoxy. Undoped and dye1-doped epoxies were cast by blade casting techniques. Film thickness was the same (0.3 mm) for both films, and the dopant concentration for the doped film was do=0.003 M.
A 2 cm-long, dye1-doped epoxy (EPO-TEX301) rod with a concentration of do=0.004M was used for TPA induced fluorescence and optical limiting measurements. An incident near infrared laser beam, having a wavelength of 1.06 μm, a pulsewidth of about 8 ns, a spectral width of about 1 cm^−1, and a repetition rate of 3 Hz, was provided by a Q-switched Nd-YAG pulsed laser source. The incident 1.06 μm radiation on the sample was a quasi-parallel laser beam of about 1 mm size with a nearly uniform transverse intensity distribution. An orange-red fluorescence emission was readily observed by the human eye in a dark room when the 1.06 μm incident beam intensity reached several MW/cm^2. […] Each data point was averaged over 10 laser pulses by using a gated integrator and boxcar averager. The solid line is the best fitted curve based on the square law that TPA processes follow.
where I(L) is the transmitted beam intensity, Io, is the incident beam intensity, L is the thickness of the sample, and β is the TPA coefficient of the sample medium. In the derivation of Equation (1), it is assumed that the linear attenuation of the medium can be neglected and the beam has a nearly uniform transverse intensity distribution within the medium. Using Equation (1), the value of β can be determined by measuring the transmitted intensity versus the incident intensity for a sample medium with a given L value. Furthermore, the TPA coefficient β (in units of cm/GW) of a given sample is determined by
Here, No is the molecular density of the dopant (in units of 1 cm^3), σ2 is the molecular TPA coefficient (or cross-section) of the same dopant (in units of cm^4/GW, do is the concentration of the dopant compound in the matrix (in units of M), and finally NA is Avogadro's number. For known β and do, the value of σ2 can be calculated from Equation (2). Another expression for molecular TPA coefficient (or cross-section), used in some reference papers, is
where hυ is the energy of an incident photon, and σ′2 has units of cm^4/photon/sec.
The measured transmitted intensity as a function of the incident intensity for the 2 cm-long, dye1-doped epoxy rod is shown in FIG. 9. Two groups of experimental data were obtained in two measurement cycles, and each data point was an average result over 10 laser pulses. In FIG. 9, the solid line is the theoretical curve predicted by Equation (1) using a best fit parameter of β=6 cm/GW, and the dashed line is similarly constructed by assuming that there is no TPA (β=0). Consequently, FIG. 9 evidences the TPA induced optical limiting behavior of dye1 at incident intensity levels of 50-250 MW/cm^2. Using a value of β=6 cm/GW and Equations (2) and (3), the values of molecular TPA cross-section of dye1 were estimated as σ2=2.5×10^−18 cm^4/GW and σ′2=4.7×10^−46 cm^4/photon/sec. These measured values of σ2 and σ2 for dye1 in EPO-TEX301 matrix are 2˜3 orders of magnitude greater than the corresponding values of Rhodamine dyes, as reported by Rapp et al., Chem. Phys. […] The damage threshold of the 2 cm-long, dye1-doped epoxy rod was measured as 250˜300 MW/cm^2.

[8] = cyclopentanone solution, 0.001 M
[9] = EPO-TEX301 matrix, 1.06 μm, from β

SMILES: CCN(CCO)c1ccc(/C=C/c2cc[n+](CCO)cc2)cc1.[I-] [ASPI, trans-4-[p-(N-ethyl-N-hydroxyethylamino)styryl]-N-hydroxyethylpyridinium iodide]
solubility ([1]; ethanol, organic solvent or mixture): 6.1 mM
solubility ([1]; in PMMA): insolubility
solubility ([1]; in methyl methacrylate monomer): insolubility
Decomposition temperature (Td) [2]: 270 °C
fluorescence quantum yield ([3]; 1.8×10^−6 M, excited at 482 nm): 6×10^−3
fluorescence quantum yield ([3]; 2.6×10^−6 M, excited at 509 nm): 7×10^−3
Quantum Yield ([3]; Solution State, Table 2): 6.5 × 10^−3
Absorbance Max. ([3]; ethanol): 483 nm
Stokes Shift ([3]; ethanol): 118 nm
molar absorptivity ([3]; ethanol, at 483 nm): 68000 M⁻¹ cm⁻¹
Fluorescence Max. ([3]; ethanol, ASPI 3.1×10^−3 M, Rhodamine-6G 6.5×10^−5 M, excitation 509 nm): 600 nm
Florescence FWHM ([3]; ethanol, same concentrations, excitation 509 nm): ~38 nm
Florescence FWHM ([4]; Composite Glass, single dye): 45 nm
Fluorescence Max. ([4]; Composite Glass, single dye): 586 nm
Florescence FWHM, ASPI emission ([4]; composite glass containing both dyes): 41 nm
Fluorescence Max., ASPI emission ([4]; composite glass containing both dyes, reconstructed peak): 594 nm

Decomposition temperature (Td) [2]: 264 °C
one-photon fluorescence bandwidth ([5]; Vycor glass 0.0015M): 60 nm
one-photon fluorescence peak ([5]; Vycor glass 0.0015M): 575 nm
absorption bandwidth [5, 8]: 100^a nm
linear absorption peak [5, 8]: 480^a nm
one-photon fluorescence bandwidth [5, 8]: 58^a nm
one-photon fluorescence peak [5, 8]: 590^a nm
one-photon fluorescence bandwidth ([5]; sol-gel glass 0.0015 M): 55 nm
one-photon fluorescence peak ([5]; sol-gel glass 0.0015 M): 568 nm
absorption bandwidth ([6]; poly(HEMA) 0.008M): 80 nm
linear absorption peak ([6]; poly(HEMA) 0.008M): 485 nm
one-photon fluorescence bandwidth ([6]; poly(HEMA) 0.008M): 55 nm
one-photon fluorescence peak ([6]; poly(HEMA) 0.008M): 577 nm
molecular TPA cross-section σ2 ([6]; poly(HEMA) rod, 1.06 μm, from nonlinear absorption data): ≈ 1.2×10^−46 cm^4-sec
strong one-photon absorption range ([7]; 0.3 mm epoxy film, 0.003 M): 350˜560 nm
TPA coefficient β (best fit) ([7]; 2 cm EPO-TEX301 rod, 0.004M, 1.06 μm): 6 cm/GW
TPA cross-section greater than values of Rhodamine dyes ([7]; EPO-TEX301 matrix): 2˜3 orders of magnitude
molecular TPA cross-section σ2 [7, 9]: 2.5×10^−18 cm^4/GW
molecular TPA cross-section σ′2 [7, 9]: 4.7×10^−46 cm^4/photon/sec
SMILES: CCN(CCO)c1ccc(/C=C/c2cc[n+](C)cc2)cc1.c1ccc([B-](c2ccccc2)(c2ccccc2)c2ccccc2)cc1 [dye1, trans-4-[p-(N-ethyl-N-hydroxyethylamino)styryl]-N-methylpyridinium tetraphenyborate]

Decomposition temperature (Td) [2]: 266 °C
SMILES: CN(C)c1ccc(/C=C/c2cc[n+](C)cc2)cc1.c1ccc([B-](c2ccccc2)(c2ccccc2)c2ccccc2)cc1 [dye2, trans-4-[p-(N,N-dimethylamino)styryl]-N-methylpyridinium tetraphenyborate]
